Measured values: patent US6573246B1, “Modified ether glyceroglycolipids” (The Liposome Company, Inc., priority 1995, dated 2003)
pIC50: −log10 of the molar value. Like-named read-outs stand apart in the source and are kept apart here.

Experiments:
Format in all cases: cell-based, human
[1] = system: OVCAR-3 cells (ovarian adenocarcinoma); test: growth inhibition of OVCAR-3 cells in culture; conditions: for pIC50: OVCAR-3 ovarian cancer cell line, read-out: Gl50 (the source's name); for growth: increase in cell numbers relative to control wells (control = 100): OVCAR-3, 72 h
Procedure: (§1) Human epithelial cancer cell lines were grown from frozen stocks originally obtained from the ATCC, in media commonly used for growing these cells in culture. For example, A549 cells (non-small cell lung adenocarcinoma) were cultured in Ham's F-12 medium, T84 cells (colon carcinoma) were cultured in a 1:1 mixture of F-12 and DMEM while MCF-7 (breast adenocarcinoma) and A427 (large cell lung carcinoma) cells were cultured in DMEM. The media were supplemented with 10% fetal bovine serum, penicillin (50 U/ml), streptomycin (50 micogram/ml) and fungizone (0.5 microgram/ml). OVCAR-3 cells (ovarian adenocarcinoma) were cultured in RPMI 1640 medium supplemented with 20% FBS and 10 microgram/ml insulin.
(§2) Cells were subcultured into 24-well plates and the cell number was monitored daily. When the cells were in log phase, the media was replaced with one containing the required drug concentration, and the cells were incubated for 72 h. The increase in cell numbers relative to control wells (without any drug) was determined after the incubation. Stock solutions of the drugs ([…]) were prepared in ethanol and stored at −20 deg. C. Etherlipid solutions (30 micromolar) in the appropriate media were prepared fresh on the day of the experiment and serially diluted to give the required concentrations. The final concentration of ethanol in all wells was 0.1% (v/v).

[2] = system: A427 (large cell lung carcinoma) cells; test: growth inhibition of A427 cells in culture; conditions: 72 h
Procedure: as §1, §2

[3] = system: A549 cells (non-small cell lung adenocarcinoma); test: growth inhibition of A549 cells in culture; conditions: 72 h
Procedure: as §1, §2
(§3) Gl50 values are given as the mean ± standard deviation; the Gl50 value from each experiment “n” was generated from three individual wells on two separate plates (six total wells); n=1 for compounds 3-6; n=2 for most cell lines treated with compound 2 ^an=3; ^bn=2; ^cn=6; ^dn=8.

[4] = system: MCF-7 (breast adenocarcinoma) cells; test: growth inhibition of MCF-7 cells in culture; conditions: MCF-7, 72 h
Procedure: as §1, §2, §3

[5] = system: T84 cells (colon carcinoma); test: growth inhibition of T84 cells in culture; conditions: 72 h
Procedure: as §1, §2

[6] = 10% FBS-supplemented medium, read-out: Gl50 (concentration that inhibited cell growth by 50% in comparison to control cultures)

CCCCCCCC/C=C\CCCCCCCCCCCCOP(=O)([O-])OCC[N+](C)(C)C [E, erucylphosphocholine]
pIC50 ([1]; Homo sapiens): < 4.52
growth: increase in cell numbers relative to control wells (control = 100) ([1]; lipid concentration 5 μM): 104.0 ± 12.2
growth: increase in cell numbers relative to control wells (control = 100) ([1]; lipid concentration 10 μM): 102.3 ± 16.1
growth: increase in cell numbers relative to control wells (control = 100) ([1]; lipid concentration 15 μM): 98.6 ± 7.8
growth: increase in cell numbers relative to control wells (control = 100) ([1]; lipid concentration 20 μM): 90.2 ± 6.6
growth: increase in cell numbers relative to control wells (control = 100) ([1]; lipid concentration 30 μM): 60 ± 10.7

CCCCCCCCCCCCCCCCOC[C@H](CO[C@@H]1O[C@H](CO)[C@@H](O)[C@H](O)[C@H]1NC(C)=O)OC [B, 1-O-hexadecyl-2-O-methyl-3-O-(2′-acetamido-2′-deoxy-β-D-glucopyranosyl)-sn-glycerol]
pIC50 [2, 6]: 4.61
proliferation: increase in cell numbers relative to control wells (control = 100) ([2]; lipid concentration 5 μM): 93 ± 12
proliferation: increase in cell numbers relative to control wells (control = 100) ([2]; lipid concentration 10 μM): 92 ± 6
proliferation: increase in cell numbers relative to control wells (control = 100) ([2]; lipid concentration 15 μM): 86 ± 10
proliferation: increase in cell numbers relative to control wells (control = 100) ([2]; lipid concentration 20 μM): 71 ± 8
proliferation: increase in cell numbers relative to control wells (control = 100) ([2]; lipid concentration 30 μM): 24 ± 4
pIC50 [3, 6]: 5.05
proliferation: increase in cell numbers relative to control wells (control = 100) ([3]; lipid concentration 5 μM): 91 ± 9
proliferation: increase in cell numbers relative to control wells (control = 100) ([3]; lipid concentration 10 μM): 45 ± 3
proliferation: increase in cell numbers relative to control wells (control = 100) ([3]; lipid concentration 15 μM): 15 ± 2
proliferation: increase in cell numbers relative to control wells (control = 100) ([3]; lipid concentration 20 μM): 0
proliferation: increase in cell numbers relative to control wells (control = 100) ([3]; lipid concentration 30 μM): 0
pIC50 [4, 6]: 4.77
proliferation: increase in cell numbers relative to control wells (control = 100) ([4]; lipid concentration 5 μM): 81 ± 8
proliferation: increase in cell numbers relative to control wells (control = 100) ([4]; lipid concentration 10 μM): 71 ± 6
proliferation: increase in cell numbers relative to control wells (control = 100) ([4]; lipid concentration 15 μM): 58 ± 5
proliferation: increase in cell numbers relative to control wells (control = 100) ([4]; lipid concentration 20 μM): 38 ± 2
proliferation: increase in cell numbers relative to control wells (control = 100) ([4]; lipid concentration 30 μM): 6 ± 3
growth: increase in cell numbers relative to control wells (control = 100) ([1]; lipid concentration 5 μM): 68.8 ± 5.8
growth: increase in cell numbers relative to control wells (control = 100) ([1]; lipid concentration 10 μM): 52.9 ± 3.9
growth: increase in cell numbers relative to control wells (control = 100) ([1]; lipid concentration 15 μM): 34.6 ± 7.3
growth: increase in cell numbers relative to control wells (control = 100) ([1]; lipid concentration 20 μM): 26.0 ± 10.9
growth: increase in cell numbers relative to control wells (control = 100) ([1]; lipid concentration 30 μM): 4.7 ± 4.8
pIC50 [1]: 5.40
pIC50 [5, 6]: < 4.52
proliferation: increase in cell numbers relative to control wells (control = 100) ([5]; lipid concentration 5 μM): 96 ± 10
proliferation: increase in cell numbers relative to control wells (control = 100) ([5]; lipid concentration 10 μM): 79 ± 12
proliferation: increase in cell numbers relative to control wells (control = 100) ([5]; lipid concentration 15 μM): 77 ± 13
proliferation: increase in cell numbers relative to control wells (control = 100) ([5]; lipid concentration 20 μM): 79 ± 16
proliferation: increase in cell numbers relative to control wells (control = 100) ([5]; lipid concentration 30 μM): 61 ± 13

CCCCCCCCCCCCCCCCOP(=O)([O-])OCC[N+](C)(C)C [D, hexadecylphosphocholine]
pIC50 ([1]; Homo sapiens): < 4.52
growth: increase in cell numbers relative to control wells (control = 100) ([1]; lipid concentration 5 μM): 93.8 ± 16.5
growth: increase in cell numbers relative to control wells (control = 100) ([1]; lipid concentration 10 μM): 90.3 ± 11.3
growth: increase in cell numbers relative to control wells (control = 100) ([1]; lipid concentration 15 μM): 67.4 ± 14.5
growth: increase in cell numbers relative to control wells (control = 100) ([1]; lipid concentration 20 μM): 62.3 ± 10.7
growth: increase in cell numbers relative to control wells (control = 100) ([1]; lipid concentration 30 μM): 67.2 ± 12.5
